These compounds were tested against LSD-1 enzyme (Homo sapiens (Human), UniProt O60341) (assay: LANCE LSD1/KDM1A demethylase assay (LSD1 histone demethylase biochemical assay)). Conditions: 1 nM LSD-1 enzyme, 1 hour preincubation at 25° C., 0.4 μM biotin-labeled Histone H3 peptide substrate.
Description: LANCE LSD1/KDM1A demethylase assay—10 μL of 1 nM LSD-1 enzyme (ENZO BML-SE544-0050) in the assay buffer (50 mM Tris, pH 7.5, 0.01% Tween-20, 25 mM NaCl, 5 mM DTT) were preincubated for 1 hour at 25° C. with 0.8 μL compound/DMSO dotted in black 384 well polystyrene plates. […] After stopping the reactions plates were incubated for 30 minutes and read on a PHERAstar FS plate reader (BMG Labtech).

SMILES | IC50 [nM]
N#CCC1(N2CC(CN[C@@H]3C[C@H]3c3ccccc3)C2)CCN(C(=O)Nc2ccc(F)cc2)CC1 (relative stereo) [Example 25, 4-(Cyanomethyl)-N-(4-fluorophenyl)-4-(3-{[(trans-2-phenylcyclopropyl)amino]methyl}azetidin-1-yl)piperidine-1-carboxamide] | ≤ 100
N#CCC1(N2CCC(N[C@@H]3C[C@H]3c3ccccc3)CC2)CN(c2ccccc2C#N)C1 (relative stereo) [Example 12, 2-(3-(Cyanomethyl)-3-{4-[(trans-2-phenylcyclopropyl)amino]piperidin-1-yl}azetidin-1-yl)benzonitrile] | ≤ 100
N#CCC1(N2CCC(N[C@@H]3C[C@H]3c3ccccc3)CC2)CN(c2ncccc2C#N)C1 (relative stereo) [Example 10, 2-(3-(Cyanomethyl)-3-{4-[(trans-2-phenylcyclopropyl)amino]piperidin-1-yl}azetidin-1-yl)nicotinonitrile] | ≤ 100
CC(C)NC(=O)N1CCC(CC#N)(N2CC(CN[C@@H]3C[C@H]3c3ccccc3)C2)CC1 (relative stereo) [Example 24, 4-(Cyanomethyl)-N-isopropyl-4-(3-{[(trans-2-phenylcyclopropyl)amino]methyl}azetidin-1-yl)piperidine-1-carboxamide] | ≤ 100
N#CCC1(N2CC(CN[C@@H]3C[C@H]3c3ccccc3)C2)CNC1 (relative stereo) [Example 26, (3-{[(trans-2-Phenylcyclopropyl)amino]methyl}-1,3′-biazetidin-3′-yl)acetonitrile] | ≤ 100
N#CCC1(N2CCC(CN[C@@H]3C[C@H]3c3ccccc3)CC2)CN(c2ccc(C#N)cc2)C1 (relative stereo) [Example 40, 4-[3-(Cyanomethyl)-3-(4-{[(trans-2-phenylcyclopropyl)amino]methyl}piperidin-1-yl)azetidin-1-yl]benzonitrile] | ≤ 100
Cn1nccc1C(=O)N1CC(CC#N)(N2CCC(N[C@@H]3C[C@H]3c3ccccc3)CC2)C1 [Example 81, [1-[(1-methyl-1H-pyrazol-5-yl)carbonyl]-3-(4-{[(1R,2S)-2-phenylcyclopropyl]amino}piperidin-1-yl)azetidin-3-yl]acetonitrile] | ≤ 100
CC(C)NC(=O)c1cc(F)c(N2CC(CC#N)(N3CCC(CN[C@@H]4C[C@H]4c4ccccc4)CC3)C2)cc1F (relative stereo) [Example 35, 4-[3-(Cyanomethyl)-3-(4-{[(trans-2-phenylcyclopropyl)amino]methyl}piperidin-1-yl)azetidin-1-yl]-2,5-difluoro-N-isopropylbenzamide] | ≤ 100
Cn1cc(C(=O)N2CC(CC#N)(N3CCC(N[C@@H]4C[C@H]4c4ccccc4)CC3)C2)cn1 [Example 80, [1-[(1-methyl-1H-pyrazol-4-yl)carbonyl]-3-(4-{[(1R,2S)-2-phenylcyclopropyl]amino}piperidin-1-yl)azetidin-3-yl]acetonitrile] | ≤ 100
O=C(O)CC1(N2CCC(CN[C@@H]3C[C@H]3c3ccccc3)CC2)CCC1 [Example 105, {1-[4-({[(1R,2S)-2-phenylcyclopropyl]amino}methyl)piperidin-1-yl]cyclobutyl}acetic acid] | ≤ 100
O=C(O)CC1(N2CCC(N[C@@H]3C[C@H]3c3ccccc3)CC2)CN(Cc2cscn2)C1 [Example 127, [3-(4-{[(1R,2S)-2-phenylcyclopropyl]amino}piperidin-1-yl)-1-(1,3-thiazol-4-ylmethyl)azetidin-3-yl]acetic acid] | ≤ 100
N#CCC1(N2CCC(N[C@@H]3C[C@H]3c3ccccc3)CC2)CN(C(=O)[C@H]2CC[C@@H](O)CC2)C1 [Example 83, [1-[(cis-4-hydroxycyclohexyl)carbonyl]-3-(4-{[(1R,2S)-2-phenylcyclopropyl]amino}piperidin-1-yl)azetidin-3-yl]acetonitrile] | ≤ 100
CNC(=O)CC1(N2CCC(C)(CN[C@@H]3C[C@H]3c3ccccc3)CC2)CCC1 [Example 57, N-methyl-2-{1-[4-methyl-4-({[(1R,2S)-2-phenylcyclopropyl]amino}methyl)piperidin-1-yl]cyclobutyl}acetamide] | ≤ 100
N#CCC1(N2CCC(N[C@@H]3C[C@H]3c3ccccc3)CC2)CN(C(=O)[C@@H]2CCOC2)C1 [Example 114, {3-(4-{[(1R,2S)-2-phenylcyclopropyl]amino}piperidin-1-yl)-1-[(3R)-tetrahydrofuran-3-ylcarbonyl]azetidin-3-yl}acetonitrile] | ≤ 100
N#CCC1(N2CCC(N[C@@H]3C[C@H]3c3ccccc3)CC2)CN(C(=O)C2CCOC2)C1 (stereo partly drawn) [Example 108, [3-(4-{[(1R,2S)-2-phenylcyclopropyl]amino}piperidin-1-yl)-1-(tetrahydrofuran-3-ylcarbonyl)azetidin-3-yl]acetonitrile] | ≤ 100
CNC(=O)CC1(N2CCC(N[C@@H]3C[C@H]3c3ccccc3)CC2)CN(CC2CC2)C1 [Example 124, 2-[1-(cyclopropylmethyl)-3-(4-{[(1R,2S)-2-phenylcyclopropyl]amino}piperidin-1-yl)azetidin-3-yl]-N-methylacetamide] | ≤ 100
N#CCC1(N2CCC(CN[C@@H]3C[C@H]3c3ccccc3)CC2)CN(c2ncccc2C(F)(F)F)C1 (relative stereo) [Example 36, {3-(4-{[(trans-2-Phenylcyclopropyl)amino]methyl}piperidin-1-yl)-1-[3-(trifluoromethyl)pyridin-2-yl]azetidin-3-yl}acetonitrile] | ≤ 100
N#CCC1(N2CCC(CN[C@@H]3C[C@H]3c3ccccc3)CC2)CN(C(=O)Nc2cccc(Cl)c2F)C1 (relative stereo) [Example 43, N-(3-Chloro-2-fluorophenyl)-3-(cyanomethyl)-3-(4-{[(trans-2-phenylcyclopropyl)amino]methyl}piperidin-1-yl)azetidine-1-carboxamide] | ≤ 100
COC(=O)N1CC(CC(=O)N(C)C)(N2CCC(N[C@@H]3C[C@H]3c3ccccc3)CC2)C1 [Example 94, methyl 3-[2-(dimethylamino)-2-oxoethyl]-3-(4-{[(1R,2S)-2-phenylcyclopropyl]amino}piperidin-1-yl)azetidine-1-carboxylate] | ≤ 100
N#CCC1(N2CCC(N[C@@H]3C[C@H]3c3ccccc3)CC2)CNC1 (relative stereo) [Example 3, (3-{4-[(trans-2-Phenylcyclopropyl)amino]piperidin-1-yl}azetidin-3-yl)acetonitrile] | ≤ 100
N#CCC1(N2CCC(CN[C@@H]3C[C@H]3c3ccccc3)CC2)CN(c2ncccc2C#N)C1 (relative stereo) [Example 34, 2-[3-(Cyanomethyl)-3-(4-{[(trans-2-phenylcyclopropyl)amino]methyl}piperidin-1-yl)azetidin-1-yl]nicotinonitrile] | ≤ 100
O=C(O)CC1(N2CCC(N[C@@H]3C[C@H]3c3ccccc3)CC2)CN(Cc2cncs2)C1 [Example 128, [3-(4-{[(1R,2S)-2-phenylcyclopropyl]amino}piperidin-1-yl)-1-(1,3-thiazol-5-ylmethyl)azetidin-3-yl]acetic acid] | ≤ 100
N#CCC1(N2CCC(N[C@@H]3C[C@H]3c3ccccc3)CC2)CN(C(=O)OC2CCOC2)C1 (stereo partly drawn) [Example 99, tetrahydrofuran-3-yl 3-(cyanomethyl)-3-(4-{[(1R,2S)-2-phenylcyclopropyl]amino}piperidin-1-yl)azetidine-1-carboxylate] | ≤ 100
N#CCC1(N2CCC(N[C@@H]3C[C@H]3c3ccccc3)CC2)CN(C(=O)c2cscn2)C1 [Example 119, [3-(4-{[(1R,2S)-2-phenylcyclopropyl]amino}piperidin-1-yl)-1-(1,3-thiazol-4-ylcarbonyl)azetidin-3-yl]acetonitrile] | ≤ 100
N#CCC1(N2CCC(CN[C@@H]3C[C@H]3c3ccccc3)CC2)CN(c2ccccc2C#N)C1 (relative stereo) [Example 39, 2-[3-(Cyanomethyl)-3-(4-{[(trans-2-phenylcyclopropyl)amino]methyl}piperidin-1-yl)azetidin-1-yl]benzonitrile] | ≤ 100
N#CCC1(N2CCC(N[C@@H]3C[C@H]3c3ccccc3)CC2)CN(c2ccc(C#N)cc2)C1 (relative stereo) [Example 13, 4-(3-(Cyanomethyl)-3-{4-[(trans-2-phenylcyclopropyl)amino]piperidin-1-yl}azetidin-1-yl)benzonitrile] | ≤ 100
CN(C)C(=O)CC1(N2CCC(N[C@@H]3C[C@H]3c3ccccc3)CC2)CN(CC2CC2)C1 [Example 123, 2-[1-(cyclopropylmethyl)-3-(4-{[(1R,2S)-2-phenylcyclopropyl]amino}piperidin-1-yl)azetidin-3-yl]-N,N-dimethylacetamide] | ≤ 100
